pKi: −log10 of the molar value. Counter-ions that a name gives are not always drawn. Like-named read-outs stand apart in the source and are kept apart here.
Tests used:
Format in all cases: biochemical
human α-thrombin = biological target: T1, human α-thrombin (Homo sapiens, UniProt P00734); experiment: Thrombin inhibition, Ki determination (hydrolysis of N-succinyl-Ala-Ala-Pro-Arg-p-nitroanilide); details: pH 7.5, 37° C.
T1 construct: Human α-thrombin, human factor Xa and human plasmin were obtained from Enzyme Research Laboratories; purchased Enzyme Research Laboratories (South Bend, Ind.)
Text: (§1) All buffer salts were obtained from Sigma Chemical Company (St. Louis, Mo.), and were of the highest purity available. The enzyme substrates, N-benzoyl-Phe-Val-Arg-p-nitroanilide (Sigma B7632), N-benzoyl-Ile-Glu-Gly-Arg-p-nitroanilide hydrochloride (Sigma B2291), N-p-Tosyl-Gly-Pro-Lys-p-nitroanilide (Sigma T6140), N-succinyl-Ala-Ala-Pro-Phe-p-nitroanilide (Sigma S7388) and N-CBZ-Val-Gly-Arg-p-nitroanilide (Sigma C7271) were obtained from Sigma.
Human α-thrombin, human factor Xa and human plasmin were obtained from Enzyme Research Laboratories (South Bend, Ind.). Bovine α-chymotrypsin (Sigma C4129), bovine trypsin (Sigma T8642) and human kidney cell urokinase (Sigma U5004) were obtained from Sigma. Human leukocyte elastase was obtained from Elastin Products (Pacific, Mo.).
All assays are based on the ability of the test compound to inhibit the enzyme catalyzed hydrolysis of a peptide p-nitroanilide substrate. […] The final concentrations for each of the substrates is listed below. In general, substrate concentrations are lower than the experimentally determined value for Km. Test compounds are prepared as a 1.0 mg/ml solution in DMSO. Dilutions are prepared in DMSO yielding 8 final concentrations encompassing a 200 fold concentration range. Enzyme solutions are prepared at the concentrations listed below in assay buffer.
Data corresponding to less than 10% of the total substrate hydrolysis were used in the calculations. The ratio of the velocity (rate of change in absorbance as a function of time) for a sample containing no test compound is divided by the velocity of a sample containing test compound, and is plotted as a function of test compound concentration. The data are fit to a linear regression, and the value of the slope of the line calculated. The inverse of the slope is the experimentally determined Ki value.
Thrombin activity was assessed as the ability to hydrolyze the substrate N-succinyl-Ala-Ala-Pro-Arg-p-nitroanilide.

bovine α-chymotrypsin = experiment: Chymotrypsin inhibition (hydrolysis of N-succinyl-Ala-Ala-Pro-Phe-p-nitroanilide); details: at 1.6 μM
Text: as §1, with “Sigma. N-succinyl-Ala-Ala-Pro-Arg-p-nitroanilide (BACHEM L-1720) and N-succinyl-Ala-Ala-Pro-Val-p-nitroanilide (BACHEM L-1770) were obtained from BACHEM (King of Prussia, Pa.). […]” for “Sigma.”
(§2) All assays are based on the ability of the test compound to inhibit the enzyme catalyzed hydrolysis of a peptide p-nitroanilide substrate. […] In general, substrate concentrations are lower than the experimentally determined value for Km. […]
(§3) In a typical Ki determination, into each well of a 96 well plate is pipetted 280 μL of substrate solution, 10 μL of test compound solution, and the plate allowed to thermally equilibrate at 37° C. in a Molecular Devices plate reader for >15 minutes. Reactions were initiated by the addition of a 10 μL aliquot of enzyme and the absorbance increase at 405 nm is recorded for 15 minutes. […] The data are fit to a linear regression, and the value of the slope of the line calculated. The inverse of the slope is the experimentally determined Ki value. […]

bovine trypsin = experiment: Trypsin inhibition (hydrolysis of N-benzoyl-Phe-Val-Arg-p-nitroanilide); details: at 1.6 μM
Text: as §1, with “Sigma. N-succinyl-Ala-Ala-Pro-Arg-p-nitroanilide (BACHEM L-1720) and N-succinyl-Ala-Ala-Pro-Val-p-nitroanilide (BACHEM L-1770) were obtained from BACHEM (King of Prussia, Pa.). […]” for “Sigma.”
as §2, §3

human leukocyte elastase = experiment: Elastase inhibition (hydrolysis of N-succinyl-Ala-Ala-Pro-Val-p-nitroanilide); details: at 1.6 μM
Text: as §1, with “Sigma. N-succinyl-Ala-Ala-Pro-Arg-p-nitroanilide (BACHEM L-1720) and N-succinyl-Ala-Ala-Pro-Val-p-nitroanilide (BACHEM L-1770) were obtained from BACHEM (King of Prussia, Pa.). […]” for “Sigma.”
as §2, §3

human kidney urokinase = experiment: Urokinase inhibition (hydrolysis of N-CBZ-Val-Gly-Arg-p-nitroanilide); details: at 1.6 μM
Text: as §1, with “Sigma. N-succinyl-Ala-Ala-Pro-Arg-p-nitroanilide (BACHEM L-1720) and N-succinyl-Ala-Ala-Pro-Val-p-nitroanilide (BACHEM L-1770) were obtained from BACHEM (King of Prussia, Pa.). […]” for “Sigma.”
as §2, §3

human plasmin = experiment: Plasmin inhibition (hydrolysis of N-p-Tosyl-Gly-Pro-Lys-p-nitroanilide); details: at 1.6 μM
Text: as §1, with “Sigma. N-succinyl-Ala-Ala-Pro-Arg-p-nitroanilide (BACHEM L-1720) and N-succinyl-Ala-Ala-Pro-Val-p-nitroanilide (BACHEM L-1770) were obtained from BACHEM (King of Prussia, Pa.). […]” for “Sigma.”
as §2, §3

human factor Xa = experiment: Factor Xa inhibition (hydrolysis of N-benzoyl-Ile-Glu-Gly-Arg-p-nitroanilide); details: at 1.6 μM
Text: as §1, with “Sigma. N-succinyl-Ala-Ala-Pro-Arg-p-nitroanilide (BACHEM L-1720) and N-succinyl-Ala-Ala-Pro-Val-p-nitroanilide (BACHEM L-1770) were obtained from BACHEM (King of Prussia, Pa.). […]” for “Sigma.”
as §2, §3

Compound	pKi (human α-thrombin; Table 2, read-out: Ki (thrombin))	% Inhibition (chymotrypsin) (bovine α-chymotrypsin) [%]	% Inhibition (trypsin) (bovine trypsin) [%]	% Inhibition (elastase) (human leukocyte elastase) [%]	% Inhibition (urokinase) (human kidney urokinase) [%]	% Inhibition (plasmin) (human plasmin) [%]	% Inhibition (Factor Xa) (human factor Xa) [%]	pKi (human α-thrombin; Table 1, read-out: Thrombin Ki)
Cc1cc(OCCC=NNC(=N)N)cc(OS(=O)(=O)c2ccccc2Cl)c1 [Example 1, 2-[2-[3-(2-Chlorophenylsulfonyloxy)-5-methylphenoxy]ethyl-1-methylene]hydrazinecarboximidamide hydrochloride]	7.89	0	0	0	0	0	0	–
Cc1cc(OCCC=NNC(=N)N)cc(OS(=O)(=O)c2cccc(C#N)c2)c1 [Example 36, 2-[2-[3-(3-Cyanophenylsulfonyloxy)-5-methylphenoxy]ethyl-1-methylene]hydrazinecarboximidamide nitrate]	–	–	–	–	–	–	–	7.17
Cc1cc(OCC2(C=NNC(=N)N)CC2)cc(OS(=O)(=O)c2ccccc2C#N)c1 [Example 39, 2-[[1-[3-(2-Cyanophenylsulfonyloxy)-5-methylphenoxy]-methyl]cyclopropyl-1-methylene]hydrazinecarboximidamide acetate]	–	–	–	–	–	–	–	7.28

— patent US5891909A, “Amidinohydrazones as protease inhibitors” (3-Dimensional Pharmaceuticals, Inc., priority 1997, dated 1999)
